We go through 13 compounds from patent US20230181746A1, “BENZOYLHYDRAZIDE-DERIVED HDAC DEGRADERS AS THERAPEUTICS FOR TREATING CANCER AND OTHER HUMAN DISEASES” (University of Florida Research Foundation, Inc., priority 2020, published 2023).

The target of one assay is HDAC3 (Homo sapiens, UniProt O15379). The assay is described as follows: HDAC3 degradation in breast cancer cell lines, Western blot. The note with it: for DC50: T47D cells, read-out: DC50, HDAC3 degradation potency. Also noted: endogenous in cells; host or cells: MDA-MB-468, T47D, MCF7. The assay is classed as cell-based. The text has this:
Data are presented as representative figures of two independent experiments.
Cells were lysed for WB with antibodies against the indicated proteins. Antibodies against acetylated histones at specific sites (H3K27 and H4K5) and acetyl-lysine were used to assess levels of histone acetylation.
Cells were lysed for WB. […] The indicated BC cell lines were exposed to DMSO, XZ9002, or XZ9002-NC at the indicated concentrations. Colonies were fixed and stained.
Cell lines were obtained from ATCC and subsequently authenticated. Cells were cultured with DMEM supplemented with 10% bovine calf serum, penicillin to 10 units/mL, and streptomycin to 10 μg/mL. For viability assays, 5,000 cells/well were seeded in 96-well plates. […] For colony formation assay, cells (˜1,000 cells/well) were seeded in a 24-well plate in quadruplicates. […] Medium was replaced with freshly prepared medium containing DMSO, XZ9002 or XZ9002-NC every five days until visible colonies appeared, typically in 15 to 20 days after initial cell seeding. Cells were fixed with 4% paraformaldehyde for 15 min and stained with 2% methylene blue in 20% ethanol for 30 min to 1 h. The cells were washed twice with distilled water and dried in air. For western blotting, cell cultures were exposed to compounds as indicated in relevant figures. Medium was removed from culture plate, and 1 x passive lysis buffer was then added, the plates were frozen at −80° C. overnight and thawed at room temperature. The total cell lysates were mixed with a one fifth volume of 6x SDS sample buffer, heated at 95° C. for 5 min and cooled on ice. The lysates were cleared by centrifugation and then subjected to SDS-PAGE and western blotting essentially as described.
A general note: A western blot detects proteins with antibodies after separation by electrophoresis.

A further assay concerns the target HDAC2 (Homo sapiens, UniProt Q92769). The assay is described as follows: In vitro HDAC activity assay (HDAC-Glo I/II), HDAC2. The class given is biochemical. The arrangement: purchased BPS Bioscience 50002. The settings on record: average of three independent assays ± standard deviation. As to the method:
(§1) Purified HDAC1, HDAC2, and HDAC3 (in complex with the deacetylase activation domain of the human NCOR2 (amino acids 395-498)) were obtained from Enzo Life Sciences (HDAC1, catalog # BML-SE456-0050) and BPS Bioscience (HDAC2, catalog #50002 and HDAC3, catalog #50003), respectively. The enzyme activities were tested using the HDAC-Glo I/II reagents (Promega) according to a protocol provided by the manufacturer.

In a further assay the target is HDAC1 (Homo sapiens, UniProt Q13547). The assay is described as follows: In vitro HDAC activity assay (HDAC-Glo I/II), HDAC1. The assay is classed as biochemical. Also noted: purchased Enzo Life Sciences BML-SE456-0050. The settings on record: average of three independent assays ± standard deviation. As to the method:
as §1

For assay [1], the target named is T1, HDAC3 (in complex with the deacetylase activation domain of the human NCOR2 (amino acids 395-498)) (Homo sapiens, UniProt O15379).
T1 construct: purchased BPS Bioscience 50003
T1 sequence (O15379 whole entry, the tested form may be a part): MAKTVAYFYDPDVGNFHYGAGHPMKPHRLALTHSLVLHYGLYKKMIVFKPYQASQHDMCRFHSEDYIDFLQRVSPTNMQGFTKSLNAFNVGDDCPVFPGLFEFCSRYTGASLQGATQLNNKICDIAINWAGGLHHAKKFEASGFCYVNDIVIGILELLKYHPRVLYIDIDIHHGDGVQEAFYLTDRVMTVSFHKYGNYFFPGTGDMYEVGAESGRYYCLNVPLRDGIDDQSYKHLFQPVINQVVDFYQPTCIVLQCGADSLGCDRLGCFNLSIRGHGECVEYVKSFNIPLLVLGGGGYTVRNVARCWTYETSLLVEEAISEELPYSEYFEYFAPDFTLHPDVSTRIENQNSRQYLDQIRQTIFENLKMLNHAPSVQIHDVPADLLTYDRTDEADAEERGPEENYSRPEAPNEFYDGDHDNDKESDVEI
T1 sequence (Q9Y618 395-498 partner limits assumed): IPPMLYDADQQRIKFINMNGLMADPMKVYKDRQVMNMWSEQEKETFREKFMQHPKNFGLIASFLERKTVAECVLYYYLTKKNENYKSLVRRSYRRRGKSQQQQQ
The assay is described as follows: In vitro HDAC activity assay (HDAC-Glo I/II), HDAC3. The class given is biochemical. The settings on record: HDAC-Glo I/II; average of three independent assays ± standard deviation. As to the method: as §1

HDAC2, sequence (Q92769 whole entry, the tested form may be a part): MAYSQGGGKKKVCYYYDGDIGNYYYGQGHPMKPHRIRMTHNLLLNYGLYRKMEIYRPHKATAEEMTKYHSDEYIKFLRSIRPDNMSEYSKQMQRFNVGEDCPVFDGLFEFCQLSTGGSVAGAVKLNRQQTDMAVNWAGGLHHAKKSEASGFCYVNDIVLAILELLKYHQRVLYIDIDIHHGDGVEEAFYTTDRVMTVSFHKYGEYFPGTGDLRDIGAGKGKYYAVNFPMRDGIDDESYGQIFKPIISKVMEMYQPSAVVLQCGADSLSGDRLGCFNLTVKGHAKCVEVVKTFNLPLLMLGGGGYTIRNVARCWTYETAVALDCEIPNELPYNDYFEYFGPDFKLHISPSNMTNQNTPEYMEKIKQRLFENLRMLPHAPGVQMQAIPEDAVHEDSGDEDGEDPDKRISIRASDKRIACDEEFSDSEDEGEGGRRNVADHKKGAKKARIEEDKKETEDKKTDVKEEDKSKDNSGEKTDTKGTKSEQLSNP
HDAC1, sequence (Q13547 whole entry): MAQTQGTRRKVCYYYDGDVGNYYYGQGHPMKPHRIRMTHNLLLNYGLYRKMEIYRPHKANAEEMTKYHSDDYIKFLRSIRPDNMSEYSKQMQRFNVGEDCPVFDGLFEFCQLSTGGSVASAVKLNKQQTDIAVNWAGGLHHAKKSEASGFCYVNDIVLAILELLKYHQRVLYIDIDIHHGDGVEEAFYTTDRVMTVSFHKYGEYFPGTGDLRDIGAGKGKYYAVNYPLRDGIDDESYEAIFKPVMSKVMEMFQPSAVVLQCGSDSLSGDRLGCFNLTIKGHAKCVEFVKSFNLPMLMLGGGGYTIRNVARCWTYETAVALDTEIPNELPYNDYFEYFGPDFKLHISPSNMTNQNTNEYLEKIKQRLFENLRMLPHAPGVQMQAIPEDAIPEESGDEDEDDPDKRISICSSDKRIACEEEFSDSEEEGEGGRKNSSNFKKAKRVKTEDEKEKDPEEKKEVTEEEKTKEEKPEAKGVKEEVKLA
HDAC3, sequence (O15379 whole entry): as the sequence (O15379 whole entry, the tested form may be a part) above
HDAC3, sequence (Q9Y618 395-498 partner limits assumed): as the sequence (Q9Y618 395-498 partner limits assumed) above

As for `CCCNNC(=O)c1ccc(N2CCN(CCCCCCCCCC(=O)N[C@H](C(=O)N3C[C@H](O)C[C@H]3C(=O)N[C@@H](C)c3ccc(-c4scnc4C)cc3)C(C)(C)C)CC2)cc1` [Compound 28e, (2S,4R)-1-((S)-3,3-dimethyl-2-(10-(4-(4-(2-propylhydrazine-1-carbonyl)phenyl)piperazin-1-yl)decanamido)butanoyl)-4-hydroxy-N—((S)-1-(4-(4-methylthiazol-5-yl)phenyl)ethyl)pyrrolidine-2-carboxamide], at HDAC3, the DC50 (in general, the concentration giving 50% degradation) was less than 1000 nM. Turning to `CCCNNC(=O)c1ccc(-c2ccc(NC(=O)COCCOCCOCCOCCNc3cccc4c3C(=O)N(C3CCC(=O)NC3=O)C4=O)cc2)cc1` (stereo not drawn) [Compound 7c, 14-((2-(2,6-dioxopiperidin-3-yl)-1,3-dioxoisoindolin-4-yl)amino)-N-(4′-(2-propylhydrazine-1-carbonyl)-[1,1′-biphenyl]-4-yl)-3,6,9,12-tetraoxatetradecanamide], the IC50 – broadly, the point on the concentration scale where inhibition reaches its midpoint – against HDAC2 came out at 450 ± 70 nM; against HDAC1 it was 125 ± 35 nM; in assay [1] it was 72 ± 15 nM. For the same compound, the “concentration at which HDAC3 is degraded” value on HDAC3 (PROTACs derived from CRBN, breast cancer cell lines) came to 1.0 µM. `CCCNNC(=O)c1ccc(-c2ccc(NC(=O)COCCOCCNc3cccc4c3C(=O)N(C3CCC(=O)NC3=O)C4=O)cc2)cc1` (stereo not drawn) [Compound 7a]: the IC50 on HDAC2 was determined as 410 ± 14 nM; against HDAC1, 82 ± 25 nM; in assay [1], 43 ± 18 nM. As to `CCCNNC(=O)c1ccc(N2CCN(C(=O)CCCCCCCCC(=O)N[C@H](C(=O)N3C[C@H](O)C[C@H]3C(=O)N[C@@H](C)c3ccc(-c4scnc4C)cc3)C(C)(C)C)CC2)cc1` [Compound 27c, (2S,4R)-1-((S)-3,3-dimethyl-2-(10-oxo-10-(4-(4-(2-propylhydrazine-1-carbonyl)phenyl)piperazin-1-yl)decanamido)butanoyl)-4-hydroxy-N—((S)-1-(4-(4-methylthiazol-5-yl)phenyl)ethyl)pyrrolidine-2-carboxamide], on HDAC3, the half-maximal degradation concentration (DC50) was less than 100 nM. For `CCCNNC(=O)c1ccc(N2CCN(C(=O)CCCCCCC(=O)N[C@H](C(=O)N3C[C@H](O)C[C@H]3C(=O)N[C@@H](C)c3ccc(-c4scnc4C)cc3)C(C)(C)C)CC2)cc1` [Compound 27b, (2S,4R)-1-((S)-3,3-dimethyl-2-(8-oxo-8-(4-(4-(2-propylhydrazine-1-carbonyl)phenyl)piperazin-1-yl)octanamido)butanoyl)-4-hydroxy-N—((S)-1-(4-(4-methylthiazol-5-yl)phenyl)ethyl)pyrrolidine-2-carboxamide], the DC50 at HDAC3 was less than 100 nM. Take `CCCNNC(=O)c1ccc(-c2ccc(NC(=O)CCCCCCCCC(=O)N[C@H](C(=O)N3C[C@H](O)C[C@H]3C(=O)N[C@@H](C)c3ccc(-c4scnc4C)cc3)C(C)(C)C)cc2)cc1` [Compound 8d, N^1—((S)-1-((2S,4R)-4-Hydroxy-2-(((S)-1-(4-(4-methylthiazol-5-yl)phenyl)ethyl)carbamoyl)pyrrolidin-1-yl)-3,3-dimethyl-1-oxobutan-2-yl)-N^10-(4′-(2-propylhydrazine-1-carbonyl)-[1,1′-biphenyl]-4-yl)decanediamide]: the IC50 against HDAC2 came out at 1420 ± 250 nM; on HDAC1, 1500 ± 140 nM; in assay [1], 550 ± 70 nM. For `CCCNNC(=O)c1ccc(-c2ccc(NC(=O)CCCCCCC(=O)N[C@H](C(=O)N3C[C@@H](O)C[C@@H]3C(=O)N[C@@H](C)c3ccc(-c4scnc4C)cc3)C(C)(C)C)cc2)cc1` [XZ9002-NC, N^1—((S)-1-((2R,4S)-4-Hydroxy-2-(((S)-1-(4-(4-methylthiazol-5-yl)phenyl)ethyl)carbamoyl)pyrrolidin-1-yl)-3,3-dimethyl-1-oxobutan-2-yl)-N^5-(4′-(2-propylhydrazine-1-carbonyl)-[1,1′-biphenyl]-4-yl)octanediamide], on HDAC3 (MDA-MB-468 cells (FIG. 3B)), the “HDAC3 degradation (in words)” value is listed as “did not induce HDAC3 degradation”.

On to `CCCNNC(=O)c1ccc(N2CCN(CCCCCCC(=O)N[C@H](C(=O)N3C[C@H](O)C[C@H]3C(=O)N[C@@H](C)c3ccc(-c4scnc4C)cc3)C(C)(C)C)CC2)cc1` [Compound 28b, (2S,4R)-1-((S)-3,3-dimethyl-2-(7-(4-(4-(2-propylhydrazine-1-carbonyl)phenyl)piperazin-1-yl)heptanamido)butanoyl)-4-hydroxy-N—((S)-1-(4-(4-methylthiazol-5-yl)phenyl)ethyl)pyrrolidine-2-carboxamide], for which the DC50 at HDAC3 was less than 100 nM. Turning to `CCCNNC(=O)c1ccc(-c2ccc(NC(=O)CCC(=O)N[C@H](C(=O)N3C[C@H](O)C[C@H]3C(=O)N[C@@H](C)c3ccc(-c4scnc4C)cc3)C(C)(C)C)cc2)cc1` [Compound 8a, N^1—((S)-1-((2S,4R)-4-hydroxy-2-(((S)-1-(4-(4-methylthiazol-5-yl)phenyl)ethyl)carbamoyl)pyrrolidine-1-yl)-3,3-dimethyl-1-oxobutan-2-yl)-N^4-(4′-(2-propylhydrazine-1-carbonyl)-[1,1′-biphenyl]-4-yl)succinimide], the IC50 on HDAC2 was determined as 1400 ± 140 nM; against HDAC1, 300 ± 70 nM; in assay [1] it was 140 ± 40 nM. In the case of `CCCNNC(=O)c1ccc(N2CCN(CCCCCC(=O)N[C@H](C(=O)N3C[C@H](O)C[C@H]3C(=O)N[C@@H](C)c3ccc(-c4scnc4C)cc3)C(C)(C)C)CC2)cc1` [Compound 28a, (2S,4R)-1-((S)-3,3-dimethyl-2-(6-(4-(4-(2-propylhydrazine-1-carbonyl)phenyl)piperazin-1-yl)hexanamido)butanoyl)-4-hydroxy-N—((S)-1-(4-(4-methylthiazol-5-yl)phenyl)ethyl)pyrrolidine-2-carboxamide], the DC50 at HDAC3 is less than 100 nM.

Regarding `CCCNNC(=O)c1ccc(N2CCN(C(=O)CCCCC(=O)N[C@H](C(=O)N3C[C@H](O)C[C@H]3C(=O)N[C@@H](C)c3ccc(-c4scnc4C)cc3)C(C)(C)C)CC2)cc1` [Compound 27a, (2S,4R)-1-((S)-3,3-dimethyl-2-(6-oxo-6-(4-(4-(2-propylhydrazine-1-carbonyl)phenyl)piperazin-1-yl)hexanamido)butanoyl)-4-hydroxy-N—((S)-1-(4-(4-methylthiazol-5-yl)phenyl)ethyl)pyrrolidine-2-carboxamide], the DC50 at HDAC3 was less than 1000 nM.

Turning to `CCCNNC(=O)c1ccc(-c2ccc(NC(=O)COCCOCCOCCNc3cccc4c3C(=O)N(C3CCC(=O)NC3=O)C4=O)cc2)cc1` (stereo not drawn) [Compound 7b, 2-(2-(2-(2-((2-(2,6-dioxopiperidin-3-yl)-1,3-dioxoisoindolin-4-yl)amino)ethoxy)ethoxy)ethoxy)-N-(4′-(20propylhydrazine-1-carbonyl)[1,1′-biphenyl]-4-yl)acetamide], the values for the IC50 (against HDAC2; on HDAC1; in assay [1]) were 400 ± 30 nM, 90 ± 14 nM and 38 ± 23 nM, respectively. As for `CCCNNC(=O)c1ccc(N2CCN(CCCCCCCCC(=O)N[C@H](C(=O)N3C[C@H](O)C[C@H]3C(=O)N[C@@H](C)c3ccc(-c4scnc4C)cc3)C(C)(C)C)CC2)cc1` [Compound 28d, (2S,4R)-1-((S)-3,3-dimethyl-2-(9-(4-(4-(2-propylhydrazine-1-carbonyl)phenyl)piperazin-1-yl)nonanamido)butanoyl)-4-hydroxy-N—((S)-1-(4-(4-methylthiazol-5-yl)phenyl)ethyl)pyrrolidine-2-carboxamide], the DC50 on HDAC3 was less than 100 nM.
